The assay has as its target P-glycoprotein (P-gp, MDR1) (Homo sapiens, UniProt P08183). Description: basal-to-apical [3H]digoxin flux in MDCK-hMDR1-cMDR1-KO cells, dose-response. The class given is cell-based.

Here are results for one molecule from PMC9148196 (The AAPS journal, 2021).

Usually IC50 stands for the point on the concentration scale where inhibition reaches its midpoint. Read a high IC50 as a need for much substance.

P-glycoprotein (P-gp, MDR1), sequence (P08183 whole entry): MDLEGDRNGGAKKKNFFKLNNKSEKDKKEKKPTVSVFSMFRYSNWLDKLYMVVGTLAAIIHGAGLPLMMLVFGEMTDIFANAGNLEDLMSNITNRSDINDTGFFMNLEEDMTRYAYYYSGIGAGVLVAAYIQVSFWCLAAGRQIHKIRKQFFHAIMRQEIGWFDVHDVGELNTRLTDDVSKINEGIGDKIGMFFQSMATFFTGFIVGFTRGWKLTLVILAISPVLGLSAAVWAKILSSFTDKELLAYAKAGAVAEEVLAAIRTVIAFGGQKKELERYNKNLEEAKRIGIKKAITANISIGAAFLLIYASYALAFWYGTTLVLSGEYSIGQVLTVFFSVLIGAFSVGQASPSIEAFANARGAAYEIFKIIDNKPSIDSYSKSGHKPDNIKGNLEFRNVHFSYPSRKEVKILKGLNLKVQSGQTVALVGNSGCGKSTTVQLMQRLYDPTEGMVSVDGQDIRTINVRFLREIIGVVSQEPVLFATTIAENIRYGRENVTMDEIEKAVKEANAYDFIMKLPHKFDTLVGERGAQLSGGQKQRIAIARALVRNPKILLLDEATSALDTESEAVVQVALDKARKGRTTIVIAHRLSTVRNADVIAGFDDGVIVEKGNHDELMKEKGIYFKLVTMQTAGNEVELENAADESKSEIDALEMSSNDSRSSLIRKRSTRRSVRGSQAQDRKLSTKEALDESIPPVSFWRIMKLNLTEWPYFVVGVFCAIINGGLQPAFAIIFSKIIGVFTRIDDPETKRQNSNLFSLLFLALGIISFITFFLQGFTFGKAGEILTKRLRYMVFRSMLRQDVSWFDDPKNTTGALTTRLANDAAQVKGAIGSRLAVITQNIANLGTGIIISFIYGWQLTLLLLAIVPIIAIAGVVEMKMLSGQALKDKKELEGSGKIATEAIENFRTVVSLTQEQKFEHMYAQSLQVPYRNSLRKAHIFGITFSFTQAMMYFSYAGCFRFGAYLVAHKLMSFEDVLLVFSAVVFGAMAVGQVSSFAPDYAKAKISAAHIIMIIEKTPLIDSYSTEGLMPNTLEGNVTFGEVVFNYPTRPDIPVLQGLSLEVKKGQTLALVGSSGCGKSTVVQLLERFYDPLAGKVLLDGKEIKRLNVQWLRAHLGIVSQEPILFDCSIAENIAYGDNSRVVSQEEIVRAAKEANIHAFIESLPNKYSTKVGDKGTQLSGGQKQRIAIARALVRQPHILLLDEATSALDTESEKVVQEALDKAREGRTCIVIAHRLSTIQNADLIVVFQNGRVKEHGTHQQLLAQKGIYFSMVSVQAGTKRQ

`CCN(Cc1cccc(S(=O)(=O)O)c1)c1ccc(C(=C2C=CC(=[N+](CC)Cc3cccc(S(=O)(=O)[O-])c3)C=C2)c2ccc(S(=O)(=O)O)cc2)cc1` [Light green SF yellowish] had an IC50 of 204 µM.
